The source of these data is ChEMBL document CHEMBL1777738, “3-Cyano-6-(5-methyl-3-pyrazoloamino)pyridines: selective Aurora A kinase inhibitors” (Bioorg Med Chem Lett, 2010).

Data set [1] can be described thus: Intrinsic clearance in human hepatic microsomes. The class given is ADME, Liver, Microsome.
Another data set addresses T1, Aurora kinase A (Homo sapiens, UniProt O14965).
T1 sequence (O14965 whole entry): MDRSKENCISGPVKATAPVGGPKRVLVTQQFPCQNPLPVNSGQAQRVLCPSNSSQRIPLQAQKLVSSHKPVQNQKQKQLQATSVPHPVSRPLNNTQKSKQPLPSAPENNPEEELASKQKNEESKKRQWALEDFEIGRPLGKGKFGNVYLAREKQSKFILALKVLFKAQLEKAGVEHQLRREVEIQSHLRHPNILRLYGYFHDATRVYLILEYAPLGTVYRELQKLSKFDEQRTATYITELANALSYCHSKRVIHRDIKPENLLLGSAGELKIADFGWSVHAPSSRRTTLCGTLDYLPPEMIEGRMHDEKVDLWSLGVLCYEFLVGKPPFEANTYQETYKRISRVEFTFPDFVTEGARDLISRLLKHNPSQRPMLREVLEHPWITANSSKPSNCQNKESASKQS

For data set [2], the system named is HCT-116. Put plainly: Antitumor activity against human HCT116 cells xenografted in mouse assessed as tumor growth inhibition at 30 mg/kg, ip qd for 14 days.
For data set [3], the system named is HCT-116. Briefly: Antitumor activity against human HCT116 cells xenografted in mouse assessed as tumor growth inhibition at 100 mg/kg, ip qd for 14 days.
Data set [4] in a line: Cmax in rat at 30 mg/kg, po. Format: ADME, organism-based. Further details: dose 30 mg/kg, route oral. The conditions noted are these: in vivo.
Data set [5] is described as follows: Drug level in rat serum at 30 mg/kg, po after 24 hrs. The class given is ADME, organism-based. Further details: dose 30 mg/kg, route oral. The conditions noted are these: read-out: Drug uptake.
Data set [6] concerns HCT-116. Briefly: Antiproliferative activity against human HCT116 cells. The class given is functional, cell-based.
For data set [7], the target named is Tyrosine-protein kinase Yes (Homo sapiens, UniProt P07947). Put plainly: Inhibition of Yes.
Tyrosine-protein kinase Yes, sequence (P07947 whole entry): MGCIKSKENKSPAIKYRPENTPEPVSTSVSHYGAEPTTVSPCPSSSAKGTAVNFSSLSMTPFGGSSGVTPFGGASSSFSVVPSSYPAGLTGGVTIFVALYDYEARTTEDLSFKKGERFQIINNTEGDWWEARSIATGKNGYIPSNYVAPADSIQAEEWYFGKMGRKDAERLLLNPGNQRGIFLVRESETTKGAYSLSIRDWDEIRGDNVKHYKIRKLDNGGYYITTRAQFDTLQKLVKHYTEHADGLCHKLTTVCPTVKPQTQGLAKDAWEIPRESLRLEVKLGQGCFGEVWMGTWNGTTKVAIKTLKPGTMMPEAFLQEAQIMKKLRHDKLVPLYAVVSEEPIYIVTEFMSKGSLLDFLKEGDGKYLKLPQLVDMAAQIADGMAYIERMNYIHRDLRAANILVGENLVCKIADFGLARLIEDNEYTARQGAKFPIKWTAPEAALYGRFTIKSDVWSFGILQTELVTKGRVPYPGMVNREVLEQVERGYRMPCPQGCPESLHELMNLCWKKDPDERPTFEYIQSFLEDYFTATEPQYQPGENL
Data set [8] concerns HCT-116. Put plainly: Antitumor activity against human HCT116 cells xenografted in mouse assessed as tumor growth inhibition at 30 mg/kg, po qd for 14 days. The class given is functional. The conditions noted are these: HCT-116, 336 h.
The next data set deals with Mus musculus. Put plainly: Toxicity in human HCT116 cells xenografted mouse assessed as reduction in body weight at 30 mg/kg, po qd for 14 days. The class given is organism-based, HCT-116. Further details: dose 30 mg/kg, route oral. The settings on record: in vivo, 336 h.
The nature of data set [9]: Tmax in rat at 30 mg/kg, po. Format: ADME, organism-based. Further details: dose 30 mg/kg, route oral. The conditions noted are these: in vivo.
Data set [10] deals with Proto-oncogene tyrosine-protein kinase Src (Homo sapiens, UniProt P12931). Put plainly: Inhibition of c-SRC.
Proto-oncogene tyrosine-protein kinase Src, sequence (P12931 2-536 limits assumed): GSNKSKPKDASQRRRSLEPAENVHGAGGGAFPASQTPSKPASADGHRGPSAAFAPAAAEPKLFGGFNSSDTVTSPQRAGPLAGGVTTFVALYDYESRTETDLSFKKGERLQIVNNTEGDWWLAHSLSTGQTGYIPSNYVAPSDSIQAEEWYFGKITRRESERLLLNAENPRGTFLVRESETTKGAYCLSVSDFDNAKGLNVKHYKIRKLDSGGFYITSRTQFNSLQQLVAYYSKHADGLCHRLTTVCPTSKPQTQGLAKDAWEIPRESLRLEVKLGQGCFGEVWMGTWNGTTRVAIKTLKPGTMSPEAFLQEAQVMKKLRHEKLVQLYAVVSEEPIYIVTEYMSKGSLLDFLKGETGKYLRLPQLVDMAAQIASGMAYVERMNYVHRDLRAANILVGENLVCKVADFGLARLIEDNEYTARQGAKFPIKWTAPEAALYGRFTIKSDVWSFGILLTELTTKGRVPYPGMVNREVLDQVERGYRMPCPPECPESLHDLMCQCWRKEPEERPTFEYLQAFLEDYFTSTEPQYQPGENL
Data set [11] is described as follows: Half life in rat at 30 mg/kg, po. The class given is ADME, organism-based. Further details: dose 30 mg/kg, route oral. The conditions noted are these: in vivo.
The target of data set [12] is Tyrosine-protein kinase Fyn (Homo sapiens, UniProt P06241). Briefly: Inhibition of Fyn.
Tyrosine-protein kinase Fyn, sequence (P06241 whole entry): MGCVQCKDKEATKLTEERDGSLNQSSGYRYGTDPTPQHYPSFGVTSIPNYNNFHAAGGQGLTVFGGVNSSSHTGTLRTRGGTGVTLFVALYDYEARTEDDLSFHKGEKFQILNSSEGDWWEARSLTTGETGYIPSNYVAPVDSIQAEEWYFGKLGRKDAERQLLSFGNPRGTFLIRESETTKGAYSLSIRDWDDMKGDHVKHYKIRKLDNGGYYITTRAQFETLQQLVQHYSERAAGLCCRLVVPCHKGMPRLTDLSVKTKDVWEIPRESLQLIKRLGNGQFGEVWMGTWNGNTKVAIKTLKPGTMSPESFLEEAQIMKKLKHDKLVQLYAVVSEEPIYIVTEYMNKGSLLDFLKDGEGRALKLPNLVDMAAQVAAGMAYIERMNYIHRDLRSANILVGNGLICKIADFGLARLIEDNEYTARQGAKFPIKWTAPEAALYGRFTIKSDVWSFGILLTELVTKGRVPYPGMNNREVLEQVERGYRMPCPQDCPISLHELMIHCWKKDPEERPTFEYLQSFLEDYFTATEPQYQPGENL
The next data set concerns the target Aurora kinase B (Homo sapiens, UniProt Q96GD4). Briefly: Inhibition of aurora B.

Aurora kinase B, sequence (Q96GD4 whole entry): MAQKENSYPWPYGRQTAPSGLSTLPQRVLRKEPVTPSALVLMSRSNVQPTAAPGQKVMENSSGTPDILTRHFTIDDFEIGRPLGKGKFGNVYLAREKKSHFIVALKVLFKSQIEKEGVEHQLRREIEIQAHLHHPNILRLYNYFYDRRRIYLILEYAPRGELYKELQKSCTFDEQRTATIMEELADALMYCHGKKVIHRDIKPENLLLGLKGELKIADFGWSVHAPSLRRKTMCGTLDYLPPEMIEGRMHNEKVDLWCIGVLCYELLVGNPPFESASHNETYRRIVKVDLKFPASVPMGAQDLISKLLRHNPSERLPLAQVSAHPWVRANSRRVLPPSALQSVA
Description for Aurora kinase A: Inhibition of phosphotransferase activity of recombinant aurora A expressed in HeLa cells

Consider `Cc1cc(Nc2cc(C)c(C#N)c(N[C@H](C)CCCC(C)(C)O)n2)n[nH]1`, for which, in data set [1], the CL worked out at 110 µL/min/mg. On Aurora kinase A, this compound showed a Ki of 0.066 µM.

Consider `Cc1cc(Nc2cc(N3CCN(C)CC3)nc(Sc3ccc(NC(=O)C4CC4)cc3)n2)n[nH]1`, for which the growth inhibition (GI) came to 60% in the data set with HCT-116 [2] and 68% in the data set on HCT-116 [3].

`CCCCCCSc1nc(Nc2cc(C)n[nH]2)cc(C)c1C#N` came in with a Ki at Aurora kinase A of 0.0038 µM.

Consider `Cc1cc(Nc2cc(C)c(C#N)c(NCCCCCC(C)(C)O)n2)n[nH]1`, for which the affinity on Aurora kinase A corresponds to a Ki of 0.0023 µM.

At Aurora kinase A, `Cc1cc(Nc2cc(C)c(C#N)c(SCCCCCC(C)(C)O)n2)[nH]n1` registered a Ki of 0.0097 µM.

As for `Cc1cc(Nc2cc(C)c(C#N)c(NC(C)CCCC(C)(C)O)n2)n[nH]1.Cl` (racemic), the Cmax in data set [4] came out at 4930 nM. In addition, the concentration at 24 h in data set [5] was 52 nM. Besides, in the data set with HCT-116 [6], inhibition was half-maximal at 0.115 µM (IC50). Besides, the Ki in data set [7] amounted to 0.024 µM; in data set [10], 0.026 µM; in [12], 0.028 µM; at Aurora kinase B it was 0.101 µM; on Aurora kinase A, 0.0012 µM. For the same compound, the inhibition in vivo at 30 mg/kg in the data set on HCT-116 [8] was 59%. The CL in data set [1] is 70 µL/min/mg. Further, the Activity result in the data set with Mus musculus was “Non-toxic”. Moreover, the Tmax in [9] came out at 1.2 h. In data set [11], this compound showed a half-life of 3.3 h.

For the compound `Cc1cc(Nc2cc(C)c(C#N)c(N[C@@H](C)CCCC(C)(C)O)n2)[nH]n1`, in the data set with HCT-116 [6], the IC50 came to 0.052 µM. In data set [1], this compound registered a CL of 50 µL/min/mg. Moreover, on Aurora kinase A, the Ki amounted to 0.00059 µM.

Compound `Cc1cc(Nc2cc(-c3ccccc3)c(C#N)c(Sc3ccc(NC(=O)C(C)C)cc3)n2)n[nH]1` showed a Ki at Aurora kinase A of 0.31 µM.

In turn, `Cc1cc(Nc2cc(C)c(C#N)c(NCCO)n2)[nH]n1` displayed a Ki at Aurora kinase A of 0.02 µM.

Take `Cc1cc(Nc2cc(C)c(C#N)c(SCCCCCCO)n2)[nH]n1`: the Ki on Aurora kinase A turned out to be 0.0085 µM.

On to `CC(=O)Nc1ccc(Sc2nc(Nc3cc(C)n[nH]3)cc(C)c2C#N)cc1`, for which, on Aurora kinase A, affinity was put at a Ki of 0.0053 µM.

Consider `Cc1cc(Nc2cc(C)c(C#N)c(SCCCCCCN)n2)[nH]n1`, for which the affinity on Aurora kinase A, expressed as Ki, was 0.028 µM.

Compound `Cc1cc(Nc2cc(C)c(C#N)c(NCCCCCCO)n2)[nH]n1` registered a Ki on Aurora kinase A of 0.0045 µM.
